Results from patent publication US12128035B2, “Activating pyruvate kinase R” (Novo Nordisk Health Care AG, priority 2021, dated 2024).

How the values were obtained:
[1] = Phase 1 SAD/MAD: plasma pharmacokinetics in healthy volunteers; format: in vivo, human; settings: 14 days of dosing in healthy subjects
Description: This is a first-in-human (FIH), Phase 1 study of Compound 1 that will characterize the safety, PK, and PD of Compound 1 after a single dose and after repeated dosing first in healthy adult volunteers and then in adolescents or adults with sickle cell disease. Initially, a dose range of Compound 1 in single ascending dose (SAD) escalation cohorts will be explored in healthy subjects. Enrollment of healthy subjects into 2-week multiple ascending dose (MAD) escalation cohorts will be initiated once the safety and PK from at least two SAD cohorts is available to inform the doses for the 2-week MAD portion of the study. The MAD cohorts will then run in parallel to the single dose cohorts. A single dose cohort is planned to understand food effects (FE) on the PK of Compound 1. […]
In this study, SAD/MAD cohorts are randomized (3 to 1) to receive Compound 1 or placebo (P). Compound 1 was evaluated first in 4 healthy SAD cohorts and 4 healthy MAD (14-day dosing period) cohorts. Based on the safety, and PK/PD profile from HS, Compound 1 is then evaluated in 1 SCD SAD cohort and 2 SCD MAD cohorts. Specifically, based on the safety and pharmacokinetic/pharmacodynamics (PK/PD) profile in healthy volunteer studies, Compound 1 is evaluated in patients (pts) with SCD, first in a single dose (SD or SAD) cohort and then in multiple-dose (MD or MAD) cohorts (14-day and 12-week). […]

[2] = tested on: H295R adreno-cortical carcinoma cell line; test: Steroid modulation screen in vitro; format: cell-based; settings: tested at 200 to 0.0002 μM; only at top concentration
Description: To assess potential effects on steroidogenesis, Compound 1 was screened for steroid modulation in vitro using the H295R adreno-cortical carcinoma cell line (at 200 to 0.0002 μM) and in an assay to monitor cell viability (MTT Kit). Compound 1 indicated steroid modulation potential (% over vehicle) only at 200 μM, the top concentration tested, with 100% cellular viability at concentrations ≤20 μM (90% viability at 200 μM).

[3] = tested on: 2,3-DPG blood levels; test: Phase 1: blood 2,3-DPG in SCD patients; format: in vivo, human
Description: In this study, SAD/MAD cohorts are randomized (3 to 1) to receive Compound 1 or placebo (P). Compound 1 was evaluated first in 4 healthy SAD cohorts and 4 healthy MAD (14-day dosing period) cohorts. Based on the safety, and PK/PD profile from HS, Compound 1 is then evaluated in 1 SCD SAD cohort and 2 SCD MAD cohorts. Specifically, based on the safety and pharmacokinetic/pharmacodynamics (PK/PD) profile in healthy volunteer studies, Compound 1 is evaluated in patients (pts) with SCD, first in a single dose (SD or SAD) cohort and then in multiple-dose (MD or MAD) cohorts (14-day and 12-week). Safety assessments include AEs, vital signs, ECGs and laboratory parameters. PK/PD blood sampling was performed on Day 1 (SAD/MAD) and Day 14 (MAD) and up to 72 h after the last dose and at the end-of-study visit. PD parameters included 2,3-DPG, ATP, and p50 in all cohorts with additional PD studies (including oxygen scan) performed only in the SCD cohorts. PD parameters included 2,3-DPG, ATP, p50, RBC deformability with controlled deoxygenation and reoxygenation (Lorrca® oxygen scan) and varying osmolality (Lorrca® osmoscan)). To maintain study blind, pt identifiers were removed when needed.
The onset of the increase in ATP blood levels after a single 700 mg dose of Compound 1 was faster in SCD patients than in healthy volunteers, while the onset of the decrease in 2,3-DPG blood levels was slower.
The following procedures are employed for the analysis of ATP and 2,3-DPG in human whole blood K2EDTA using a protein precipitation extraction procedure and analysis by LC-MS/MS.
The following procedures are used for sample extraction prior to analysis via LC-MS/MS. 15.0 μL of the calibration standards, quality controls, matrix blanks, and samples are aliquoted into a 96-well plate. 50.0 μL of the internal standard spiking solution is added to all samples on the plate, with the exception of the matrix blank samples; 50.0 μL of water is added to the matrix blank samples. Subsequently, 150 μL of water is added to all samples on the plate. The plate is then covered and agitated by vortex at high speed for ten minutes, after which 750 μL of methanol is added to all samples on the plate. The plate is covered and agitated by vortex for approximately 1 minute. The plate is then centrifuged at approximately 3500 RPM at approximately 4° C. for five minutes. After centrifugation, a liquid handler is used to transfer 50 μL of each sample to a new 96-well plate, and 200 μL of acetonitrile is added to all samples on the plate. The newly prepared plate is covered and agitated by vortex for approximately 1 minute. The plate is then centrifuged at approximately 3500 RPM at approximately 4° C. for 2 minutes.

With `O=C([C@H](CO)c1ccccc1)N1CC2=C(C1)CN(S(=O)(=O)c1cnc3c(c1)OCCO3)C2` (single isomer, unassigned) [Compound 1] the “clearance on day 1 and day 14” value [1] was “unchanged”, the “concentration indicating steroid modulation potential (% over vehicle)” value [2] was 200 µM and the “mean percentage change in 2,3-DPG blood levels” value (from here on “mean percentage change”) ([3]; SCD 300 mg QD, Day 1, 0 h after first daily dose) was 0%. The “mean percentage change” value ([3]; SCD 300 mg QD, Day 1, 24 h after first daily dose) was −23%, the “mean percentage change” value ([3]; SCD 300 mg QD, Day 14, 0 h after first daily dose) was −25% and the “mean percentage change” value ([3]; SCD 300 mg QD, Day 14, 6 h after first daily dose) was −29%. The “mean percentage change” value ([3]; SCD 300 mg QD, Day 14, 24 h after first daily dose) was −29%, the “mean percentage change” value ([3]; SCD 300 mg QD, Day 14, 48 h after first daily dose) was −22% and the “mean percentage change” value ([3]; SCD single 700 mg, 0 h after dose) was 0%. For the same compound, the “mean percentage change” value ([3]; SCD single 700 mg, 6 h after dose) was −16%, the “mean percentage change” value ([3]; SCD single 700 mg, 24 h after dose) was −31% and the “mean percentage change” value ([3]; SCD single 700 mg, 48 h after dose) was −21%. The “mean percentage change” value ([3]; SCD single 700 mg, 72 h after dose) was −8%, the “lag of maximum decrease in blood 2,3-DPG behind maximum plasma concentration” value ([3]; SCD single 700 mg, FIG. 54B) was “about 24 hours” and the “decrease in 2,3-DPG blood concentrations” value ([3]; SCD, 24 hours after single 700-mg dose, FIG. 46A) was 26%.
